Experimental data reported in patent publication US20090155387A1, “STABLE PHARMACEUTICAL COMPOSITION COMPRISING BETA-LACTAM ANTIBIOTIC AND ION-CHELATING AGENT” (priority 2006, published 2009).

Assay: Amounts of β-lactam antibiotic, β-lactamase inhibitor and aminoglycoside antibiotic in solution over time (reverse-phase LC/HPLC)
Assay type: physicochemical
Description: The amounts of β-lactam antibiotics and β-lactamase inhibitor were determined using C18 reverse-phase LC and UV-VIS detector (Tianjin […] Co., Ltd., analysis method No. HM-K-03). The content of aminoglycoside antibiotics was measured using reverse-phase HPLC and evaporation-light-scattering detector (ELSD detector) (Tianjin […] Co., Ltd., analysis method No. HM-K-08). The amount of antibiotic component at each time point was expressed as a percentage with respect to the amount at the initial time. The relative amount of each antibiotic component in the composition at each time point was expressed as peak area ratio with respect to the corresponding peak area of an external standard.

[1] = in Example 19 solution, pH 6.75, room temperature, 0 h
[2] = in Example 19 solution, pH 6.75, room temperature, 1 h
[3] = in Example 19 solution, pH 6.75, room temperature, 2 h
[4] = in Example 19 solution, pH 6.75, room temperature, 4 h
[5] = in Example 19 solution, pH 6.75, room temperature, 6 h
[6] = in Example 19 solution, pH 6.75, room temperature, 8 h
[7] = in Example 20 solution (no EDTA), pH 6.75, room temperature, 0 h
[8] = in Example 20 solution (no EDTA), pH 6.75, room temperature, 1 h
[9] = in Example 20 solution (no EDTA), pH 6.75, room temperature, 2 h
[10] = in Example 20 solution (no EDTA), pH 6.75, room temperature, 4 h
[11] = in Example 20 solution (no EDTA), pH 6.75, room temperature, 6 h
[12] = in Example 20 solution (no EDTA), pH 6.75, room temperature, 8 h

## NCC[C@H](O)C(=O)N[C@@H]1C[C@H](N)[C@@H](O[C@H]2O[C@H](CN)[C@@H](O)[C@H](O)[C@H]2O)[C@H](O)[C@H]1O[C@H]1O[C@H](CO)[C@@H](O)[C@H](N)[C@H]1O [Amikacin]
[1]
  amount (percentage of initial amount): 99.91%
[2]
  amount (percentage of initial amount): 99.50%
[3]
  amount (percentage of initial amount): 98.88%
[4]
  amount (percentage of initial amount): 99.45%
[5]
  amount (percentage of initial amount): 98.56%
[6]
  amount (percentage of initial amount): 99.36%
[7]
  amount (percentage of initial amount): 95.98%
[8]
  amount (percentage of initial amount): 91.49%
[9]
  amount (percentage of initial amount): 85.05%
[10]
  amount (percentage of initial amount): 91.00%
[11]
  amount (percentage of initial amount): 81.93%
[12]
  amount (percentage of initial amount): 89.98%

## CC1(C)S[C@@H]2[C@H](NC(=O)[C@H](NC(=O)N3CCNC3=O)c3ccccc3)C(=O)N2[C@H]1C(=O)O [Azlocillin sodium]
In Example 22 solution (2.5% fructose), pH 6.0, room temperature, 0 h
  amount (percentage of initial amount): 92.40%
In Example 22 solution (2.5% fructose), pH 6.0, room temperature, 1 h
  amount (percentage of initial amount): 98.91%
In Example 22 solution (2.5% fructose), pH 6.0, room temperature, 2 h
  amount (percentage of initial amount): 104.0%
In Example 22 solution (2.5% fructose), pH 6.0, room temperature, 4 h
  amount (percentage of initial amount): 98.91%
In Example 22 solution (2.5% fructose), pH 6.0, room temperature, 6 h
  amount (percentage of initial amount): 99.03%
In Example 22 solution (2.5% fructose), pH 6.0, room temperature, 8 h
  amount (percentage of initial amount): 85.02%

## CO/N=C(\C(=O)N[C@@H]1C(=O)N2C(C(=O)O)=C(CSc3nc(C)c(CC(=O)O)s3)CS[C@H]12)c1csc(N)n1 [Cefodizime sodium]
In Example 10 solution, pH 6.5, room temperature, 0 h
  amount (percentage of initial amount): 92.06%
In Example 10 solution, pH 6.5, room temperature, 1 h
  amount (percentage of initial amount): 99.84%
In Example 10 solution, pH 6.5, room temperature, 2 h
  amount (percentage of initial amount): 99.73%
In Example 10 solution, pH 6.5, room temperature, 4 h
  amount (percentage of initial amount): 98.64%
In Example 10 solution, pH 6.5, room temperature, 6 h
  amount (percentage of initial amount): 94.27%
In Example 10 solution, pH 6.5, room temperature, 8 h
  amount (percentage of initial amount): 96.48%
In Example 25 solution, pH 6.75, room temperature, 0 h
  amount (percentage of initial amount): 100.9%
In Example 25 solution, pH 6.75, room temperature, 1 h
  amount (percentage of initial amount): 104.6%
In Example 25 solution, pH 6.75, room temperature, 2 h
  amount (percentage of initial amount): 100.1%
In Example 25 solution, pH 6.75, room temperature, 4 h
  amount (percentage of initial amount): 81.34%
In Example 25 solution, pH 6.75, room temperature, 6 h
  amount (percentage of initial amount): 103.7%
In Example 25 solution, pH 6.75, room temperature, 8 h
  amount (percentage of initial amount): 102.2%

## CCN1CCN(C(=O)N[C@@H](C(=O)N[C@@H]2C(=O)N3C(C(=O)O)=C(CSc4nnnn4C)CS[C@H]23)c2ccc(O)cc2)C(=O)C1=O [Cefoperazone sodium]
In Example 4 solution (no EDTA), pH 6.75, room temperature, 0 h
  amount (percentage of initial amount): 101.4%
In Example 4 solution (no EDTA), pH 6.75, room temperature, 1 h
  amount (percentage of initial amount): 98.66%
In Example 4 solution (no EDTA), pH 6.75, room temperature, 2 h
  amount (percentage of initial amount): 98.79%
In Example 4 solution (no EDTA), pH 6.75, room temperature, 4 h
  amount (percentage of initial amount): 101.5%
In Example 4 solution (no EDTA), pH 6.75, room temperature, 6 h
  amount (percentage of initial amount): 107.4%
In Example 5 solution, pH 6.75, room temperature, 0 h
  amount (percentage of initial amount): 101.4%
In Example 5 solution, pH 6.75, room temperature, 1 h
  amount (percentage of initial amount): 98.66%
In Example 5 solution, pH 6.75, room temperature, 2 h
  amount (percentage of initial amount): 98.79%
In Example 5 solution, pH 6.75, room temperature, 4 h
  amount (percentage of initial amount): 101.5%
In Example 5 solution, pH 6.75, room temperature, 6 h
  amount (percentage of initial amount): 107.4%
In Example 6 solution, pH 6.5, room temperature, 0 h
  amount (percentage of initial amount): 110.4%
In Example 6 solution, pH 6.5, room temperature, 1 h
  amount (percentage of initial amount): 99.48%
In Example 6 solution, pH 6.5, room temperature, 2 h
  amount (percentage of initial amount): 101.3%
In Example 6 solution, pH 6.5, room temperature, 4 h
  amount (percentage of initial amount): 98.66%
In Example 6 solution, pH 6.5, room temperature, 6 h
  amount (percentage of initial amount): 98.02%
In Example 6 solution, pH 6.5, room temperature, 8 h
  amount (percentage of initial amount): 99.30%
In Example 12 solution (no aminoglycoside) from freeze-dried powder stored 7 days at 0° C., redissolved, 0 h
  amount (percentage of initial amount): 100.2%
In Example 12 solution (no aminoglycoside) from freeze-dried powder stored 7 days at 0° C., redissolved, 1 h
  amount (percentage of initial amount): 99.0%
In Example 12 solution (no aminoglycoside) from freeze-dried powder stored 7 days at 0° C., redissolved, 2 h
  amount (percentage of initial amount): 99.0%
In Example 12 solution (no aminoglycoside) from freeze-dried powder stored 7 days at 0° C., redissolved, 4 h
  amount (percentage of initial amount): 96.2%
In Example 12 solution (no aminoglycoside) from freeze-dried powder stored 7 days at 0° C., redissolved, 6 h
  amount (percentage of initial amount): 94.5%
In Example 12 solution (no aminoglycoside) from freeze-dried powder stored 7 days at 0° C., redissolved, 8 h
  amount (percentage of initial amount): 95.3%
In Example 13 solution (Example 12 solution + etimicin sulfate), 0 h
  amount (percentage of initial amount): 100.2%
In Example 13 solution (Example 12 solution + etimicin sulfate), 1 h
  amount (percentage of initial amount): 99.0%
In Example 13 solution (Example 12 solution + etimicin sulfate), 2 h
  amount (percentage of initial amount): 99.0%
In Example 13 solution (Example 12 solution + etimicin sulfate), 4 h
  amount (percentage of initial amount): 96.2%
In Example 13 solution (Example 12 solution + etimicin sulfate), 6 h
  amount (percentage of initial amount): 94.5%
In Example 13 solution (Example 12 solution + etimicin sulfate), 8 h
  amount (percentage of initial amount): 95.3%
In Example 14 solution, pH 6.5, room temperature, 0 h
  amount (percentage of initial amount): 98.42%
In Example 14 solution, pH 6.5, room temperature, 1 h
  amount (percentage of initial amount): 97.39%
In Example 14 solution, pH 6.5, room temperature, 2 h
  amount (percentage of initial amount): 97.46%
In Example 14 solution, pH 6.5, room temperature, 4 h
  amount (percentage of initial amount): 94.70%
In Example 14 solution, pH 6.5, room temperature, 6 h
  amount (percentage of initial amount): 93.02%
In Example 15 solution, pH 6.5, room temperature, 0 h
  amount (percentage of initial amount): 101.7%
In Example 15 solution, pH 6.5, room temperature, 1 h
  amount (percentage of initial amount): 96.06%
In Example 15 solution, pH 6.5, room temperature, 2 h
  amount (percentage of initial amount): 95.72%
In Example 15 solution, pH 6.5, room temperature, 4 h
  amount (percentage of initial amount): 97.32%
In Example 15 solution, pH 6.5, room temperature, 6 h
  amount (percentage of initial amount): 69.95%
In Example 16 solution, pH 6.5, room temperature, 0 h
  amount (percentage of initial amount): 102.9%
In Example 16 solution, pH 6.5, room temperature, 1 h
  amount (percentage of initial amount): 108.6%
In Example 16 solution, pH 6.5, room temperature, 2 h
  amount (percentage of initial amount): 104.6%
In Example 16 solution, pH 6.5, room temperature, 4 h
  amount (percentage of initial amount): 99.50%
In Example 16 solution, pH 6.5, room temperature, 6 h
  amount (percentage of initial amount): 98.91%
In Example 16 solution, pH 6.5, room temperature, 8 h
  amount (percentage of initial amount): 103.4%
[1]
  amount (percentage of initial amount): 95.91%
[2]
  amount (percentage of initial amount): 97.01%
[3]
  amount (percentage of initial amount): 95.94%
[4]
  amount (percentage of initial amount): 95.86%
[5]
  amount (percentage of initial amount): 95.41%
[6]
  amount (percentage of initial amount): 95.22%
[7]
  amount (percentage of initial amount): 92.30%
[8]
  amount (percentage of initial amount): 94.80%
[9]
  amount (percentage of initial amount): 94.06%
[10]
  amount (percentage of initial amount): 94.12%
[11]
  amount (percentage of initial amount): 93.15%
[12]
  amount (percentage of initial amount): 94.50%
In Example 21 solution, pH 6.75, room temperature (22° C.), 0 h
  amount (percentage of initial amount): 92.44%
In Example 21 solution, pH 6.75, room temperature (22° C.), 1 h
  amount (percentage of initial amount): 104.6%
In Example 21 solution, pH 6.75, room temperature (22° C.), 2 h
  amount (percentage of initial amount): 102.4%
In Example 21 solution, pH 6.75, room temperature (22° C.), 4 h
  amount (percentage of initial amount): 97.95%
In Example 21 solution, pH 6.75, room temperature (22° C.), 6 h
  amount (percentage of initial amount): 98.90%
In Example 21 solution, pH 6.75, room temperature (22° C.), 8 h
  amount (percentage of initial amount): 102.9%
